According to US4309362A, “Process for the optical resolution of DL-p-hydroxy-phenylglycine” (Tanabe Seiyaku Co., Ltd., priority 1976, dated 1982):
Converted amounts (≈) assume the structure as drawn.

How the values were obtained:
physchem [1] = details: 0.5 m benzenesulfonic acid, organic solvent or mixture, aqueous 0.5 M benzenesulfonic acid solution
physchem [2] = assay type: physicochemical; details: water
Method: DL-, D- or L-p-hydroxyphenylglycine sulfosalicylate is prepared in the same manner as described in Example 1.
p-hydroxyphenyl- Specific Solubility (g/100
Melting rotation ml of water)

[3] = Solubility of p-hydroxyphenylglycine p-ethylbenzenesulfonate in aqueous 3 M p-ethylbenzenesulfonic acid (Table 2); assay type: physicochemical; details: aqueous 3 M p-ethylbenzenesulfonic acid solution
Excerpt: *an aqueous 3 M pethylbenzenesulfonate acid solution

[4] = Solubility of p-hydroxyphenylglycine o-toluenesulfonate in water (Table 3); assay type: physicochemical

N[C@@H](C(=O)O)c1ccc(O)cc1.O=S(=O)(O)c1ccccc1 [p-hydroxyphenylglycine benzenesulfonate, D-enantiomer, D-p-hydroxyphenylglycine benzenesulfonate] gave a solubility (physchem [1]; 20° C.) of 77 mg/mL, a solubility (physchem [1]; 30° C.) of 110 mg/mL and a solubility (physchem [1]; 40° C.) of 167 mg/mL.
In the case of N[C@@H](C(=O)O)c1ccc(O)cc1 (single isomer, unassigned; enantiomer d) [p-hydroxyphenylglycine sulfosalicylate monohydrate, D-enantiomer, D-p-hydroxyphenylglycine sulfosalicylate], the solubility (physchem [2]) is reported as 14.0 g/100 ml of water and the solubility (physchem [2]; Solubility) is reported as 100 mg/mL.
With NC(C(=O)O)c1ccc(O)cc1 (racemic) [DL-p-hydroxyphenylglycine p-ethylbenzenesulfonate] the solubility ([3]; 20° C.) was 19.3 g/100 ml of solvent, the solubility ([3]; 30° C.) was 33.2 g/100 ml of solvent and the solubility ([3]; 40° C.) was 52.1 g/100 ml of solvent.
With NC(C(=O)O)c1ccc(O)cc1 (racemic) [DL-p-hydroxyphenylglycine sulfosalicylate] the solubility (physchem [2]) was 26.3 g/100 ml of water and the solubility (physchem [2]; Solubility) was 182 mg/mL (≈ 1090 mM).
For N[C@@H](C(=O)O)c1ccc(O)cc1 (single isomer, unassigned; enantiomer d) [p-hydroxyphenylglycine p-ethylbenzenesulfonate, D-enantiomer, D-p-hydroxyphenylglycine p-ethylbenzenesulfonate], the solubility ([3]; 20° C.) was 10.3 g/100 ml of solvent, the solubility ([3]; 30° C.) was 14.2 g/100 ml of solvent and the solubility ([3]; 40° C.) was 21.8 g/100 ml of solvent.
For NC(C(=O)O)c1ccc(O)cc1 (racemic) [DL-p-hydroxyphenylglycine o-toluenesulfonate], the solubility ([4]; 20° C.) was 123 mg/mL (≈ 736 mM), the solubility ([4]; 30° C.) was 160 mg/mL (≈ 957 mM) and the solubility ([4]; 40° C.) was 210 mg/mL (≈ 1260 mM).
For N[C@H](C(=O)O)c1ccc(O)cc1 [p-hydroxyphenylglycine sulfosalicylate monohydrate, L-enantiomer, L-p-hydroxyphenylglycine sulfosalicylate], the solubility (physchem [2]) was 14.0 g/100 ml of water and the solubility (physchem [2]; Solubility) was 100 mg/mL.
For NC(C(=O)O)c1ccc(O)cc1.O=S(=O)(O)c1ccccc1 (racemic) [DL-p-hydroxyphenylglycine benzenesulfonate], the solubility (physchem [1]; 20° C.) was 154 mg/mL, the solubility (physchem [1]; 30° C.) was 241 mg/mL and the solubility (physchem [1]; 40° C.) was 350 mg/mL.
N[C@H](C(=O)O)c1ccc(O)cc1.O=S(=O)(O)c1ccccc1 [p-hydroxyphenylglycine benzenesulfonate, L-enantiomer, L-p-hydroxyphenylglycine benzenesulfonate] gave a solubility (physchem [1]; 20° C.) of 77 mg/mL, a solubility (physchem [1]; 30° C.) of 110 mg/mL and a solubility (physchem [1]; 40° C.) of 167 mg/mL.
For N[C@@H](C(=O)O)c1ccc(O)cc1 [p-hydroxyphenylglycine o-toluenesulfonate, D-enantiomer, D-p-hydroxyphenylglycine o-toluenesulfonate], the solubility ([4]; 20° C.) was 77 mg/mL (≈ 461 mM), the solubility ([4]; 30° C.) was 96 mg/mL (≈ 574 mM) and the solubility ([4]; 40° C.) was 122 mg/mL (≈ 730 mM).
N[C@H](C(=O)O)c1ccc(O)cc1 [p-hydroxyphenylglycine o-toluenesulfonate, L-enantiomer, L-p-hydroxyphenylglycine o-toluenesulfonate] showed a solubility ([4]; 20° C.) of 77 mg/mL (≈ 461 mM), a solubility ([4]; 30° C.) of 96 mg/mL (≈ 574 mM) and a solubility ([4]; 40° C.) of 122 mg/mL (≈ 730 mM).
For N[C@H](C(=O)O)c1ccc(O)cc1 [p-hydroxyphenylglycine p-ethylbenzenesulfonate, L-enantiomer, L-p-hydroxyphenylglycine p-ethylbenzenesulfonate], the solubility ([3]; 20° C.) was 10.3 g/100 ml of solvent, the solubility ([3]; 30° C.) was 14.2 g/100 ml of solvent and the solubility ([3]; 40° C.) was 21.8 g/100 ml of solvent.
